In data set [1] the test system is bacteriophage lambda (lambda-lac Z fusion prophage). As to the kind of experiment: Biochemical phage induction assay (BIA), induction of bacteriophage lambda (FIG. 1). Format: cell-based, E. coli (BR 513). The method, then:
The platinum complexes are tested using the BIA quantitative tube assay for dose-dependent induction of bacteriophage lambda according to a previously published procedure of Sarma, D. et al. Chem. Biol. Interactions, 46: 219-232 (1983), which is incorporated herein by reference. A permeable strain of E. coli (BR 513) containing lambda phage is used to test all samples. Expression time for the assay is 5 hours at 38° C. Fresh dilutions of test samples are made in saline (0.85%) on the day of the experiment. Samples are made at 10×final concentration and dispensed according to assay procedure. Final concentrations are 300 μg/ml, 200 μg/ml, 100 μg/ml, 60 μg/ml, 25 μg/ml, 10 μg/ml and a zero control.
This strain of bacteria contains a chromosomally integrated lambda-lac Z fusion phage under control of the lambda repressor. Treatment with DNA-damaging agents leads to derepression of prophage and synthesis of β-galacto-sidase, product of the lac Z gene. β-galactosidase is detected by reaction with a substrate (O-nitrophenyl-D-galactopyranoside (ONPG)) to give a yellow-colored product. Tubes are incubated at 28° C. (a few minutes to several hours to an A420 ≈0.5-1.0). Color development is stopped by the addition of base (1M Na2 CO3), and the yellow color is measured by absorbance at 420 nm. The exact time required for color development is recorded. Enzyme Units=100 A420 /thr where A420 =absorbance at 420 nm; thr =time required to develop yellow color in hours. One enzyme unit is the approximate value of an uninduced control tube at zero time.
This assay detects a wide variety of compounds which interact with DNA. […] This finding may support the hypothesis that platinum IV complexes are chemically less reactive. However, in vivo there is evidence that platinum IV complexes may be reduced to platinum (II) complexes [Pendyala, L. Proceedings 13th International Cancer Congress, Seatle, Wash., #3034, page 531, (1982)]. […] It is noted that the four isomers are not equal in their ability to induce the prophage.

Data set [2] in a line: Solubility of platinum complexes (Table I and preparation examples). It is filed as physicochemical.
Data set [3] is described as follows: Comparative water solubilities of platinum complexes (Table 7).

This note sets out measurements from US4599352A, “Antineoplastic platinum (IV) complexes and compositions” (priority 1984, dated 1986).

For the compound `[Cl][Pt-2]1([Cl])([Cl])([Cl])[NH2+][C@H]2CCCC[C@@H]2[NH2+]1` [trans (d), (1S, 2S)-Tetrachloro-trans-1,2-cyclohexanediamine platinum (IV)], in data set [1], the “Concentration of optimal effect in prophage induction” value was 25 µg/mL; the “Effectiveness in inducing prophage” value is “most effective inducers among the four”; the “Prophage induction, enzyme units” value is on record as “about 104 enzyme units”.

For the compound “Tetrachloro-cis-1,2-cyclohexanediamine platinum (IV)”, the “Solubility in DMF” value in data set [2] (DMF) worked out at 250 mg/mL. Also, in data set [2] (methanol), the Solubility in methanol was found to be 50 mg/mL. For the same compound, the Solubility in methanol-acetone in data set [2] (methanol-acetone (1:1)) is 200 mg/mL. In addition, the Solubility in water in data set [2] (water) was < 10 mg/mL. For the same compound, the “Water Solubility” value in data set [3] (Table 7) is listed as 2,000 mg/L. In addition, the “Water Solubility mg/L / Mouse Optimal Dose (mg/kg)” value in data set [3] (ratio of water solubility to mouse optimal dose) was 250 mg/L / (mg/kg). In addition, in data set [1], the “Effectiveness in inducing prophage” value was “practically inert”.

As to `[Cl][Pt-2]1([Cl])([Cl])([Cl])[NH2+][C@@H]2CCCC[C@H]2[NH2+]1` [trans (l), (1R,2R)-Tetrachloro-trans-1,2-cyclohexanediammine platinum (IV)], in data set [1], the “Concentration of optimal effect in prophage induction” value turned out to be 50 µg/mL; the “Effectiveness in inducing prophage” value is recorded as “most effective inducers among the four”; the “Prophage induction, enzyme units” value is given as “about 104 enzyme units”.

Turning to `[Cl][Pt]1([Cl])([Cl])([Cl])[NH]C2CCCCC2[NH]1` (stereo not drawn) [trans (d, l), (d,l)-Tetrachloro-trans-1,2-cyclohexanediamine platinum (IV)], in data set [1], the “Effectiveness in inducing prophage” value is “intermediate in effectiveness” and the “Prophage induction, enzyme units” value was “about 68 enzyme units”.
